The structures appear in SMILES notation. Starred links: 1 amine or outer side, 2 acyl side, 3 side chain; linkers in the order of their positions; H or OH if unused. Non-standard residues stand in square brackets, D forms with d. Residues, ends and D or L forms follow the SMILES beside them. Phe(4-(5-CO2H-2-pyrimidyl)) = N[C@@H](Cc1ccc(-c2ncc(C(=O)O)cn2)cc1)C(=O)O; Phe(4-(4-Ac-piperazinyl)) = CC(=O)N1CCN(c2ccc(C[C@H](N)C(=O)O)cc2)CC1; dPro(4R-(4-pyridylmethyl)) = O=C(O)[C@H]1C[C@@H](Cc2ccncc2)CN1; Trp(βS-Me,4-F) = C[C@@H](c1c[nH]c2cccc(F)c12)[C@H](N)C(=O)O; Bip(4'-COOH) = N[C@@H](Cc1ccc(-c2ccc(C(=O)O)cc2)cc1)C(=O)O; Ala(1-bicyclo(1.1.1)pentyl) = N[C@@H](CC12CC(C1)C2)C(=O)O; X28 = CC(=O)N1CCN(c2ncc(C[C@H](N[*:1])C(=O)[*:2])cn2)CC1; X37 = CC(=O)N1CCN(c2ccc(C[C@H](N[*:1])C(=O)[*:2])cn2)CC1; dPro(4R-Bzl(4-F)) = O=C(O)[C@H]1C[C@@H](Cc2ccc(F)cc2)CN1; Ala(pyrimidin-5-yl) = N[C@@H](Cc1cncnc1)C(=O)O; Phe(4-COOH) = N[C@@H](Cc1ccc(C(=O)O)cc1)C(=O)O; Pro(cis-4-F) = O=C(O)[C@@H]1C[C@H](F)CN1; 2Pal = N[C@@H](Cc1ccccn1)C(=O)O; 3Pal = N[C@@H](Cc1cccnc1)C(=O)O; 4Pal = N[C@@H](Cc1ccncc1)C(=O)O; Dab = NCC[C@H](N)C(=O)O; Aib = CC(C)(N)C(=O)O

The target of the test is T1, IL-1β (Homo sapiens, UniProt P01584).
T1 construct: purchased BioLegend 579404
T1 sequence (P01584 117-269): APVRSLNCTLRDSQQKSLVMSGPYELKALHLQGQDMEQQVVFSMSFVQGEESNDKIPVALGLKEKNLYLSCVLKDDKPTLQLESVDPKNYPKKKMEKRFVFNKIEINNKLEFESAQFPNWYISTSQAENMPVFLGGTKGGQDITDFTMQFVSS
Description: IL-6 assay in MRC5 cells: inhibition of IL-1β induced IL-6 secretion (AlphaLISA). It is filed as cell-based. As to conditions: inhibition of IL-1β induced IL-6 secretion in MRC5 cells; read-out: MRC5 IC50. An outline of the steps:
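Compound was pre-incubated 1 h at ambient temperature with recombinant human IL-1β at 2λ EC80 before adding human lung fibroblast MRC5 cells (3000/well) in EMEM with 0.025% BSA. After overnight culture at 37 °C, 5% CO2, secreted IL-6 in conditioned medium was measured by AlphaLISA; IC50 from 4-parameter logistic fits.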
(In Alpha technology, singlet oxygen from a donor bead excites a nearby acceptor bead.)
Consider `C[C@@H](c1c[nH]c2cccc(F)c12)[C@@H]1NC(=O)[C@@H]2C[C@H](F)CN2C(=O)CNC(=O)[C@H](Cc2ccc(C(=O)O)cc2)NC(=O)[C@H](Cc2ccncc2)NC(=O)[C@H](Cc2ccc(-c3ccc(C(=O)O)cc3)cc2)NC(=O)[C@H]2C[C@@H](Cc3ccc(F)cc3)CN2C(=O)CNC(=O)[C@H](CO)NC(=O)[C@H](CCC(N)=O)NC(=O)[C@H](Cc2cccnc2)NC(=O)C(C)(C)NC(=O)[C@H](Cc2c[nH]c3ccccc23)NC(=O)[C@H](CCC(=O)O)NC(=O)C(C)(C)NC1=O` [Example 34] (cyclo([Bip(4'-COOH)][4Pal][Phe(4-COOH)]G[Pro(cis-4-F)][Trp(βS-Me,4-F)][Aib]EW[Aib][3Pal]QSG[dPro(4R-Bzl(4-F))])), for which the half-inhibitory concentration (IC50) stood at 32 pM.
As for `C[C@@H](c1c[nH]c2cccc(F)c12)[C@@H]1NC(=O)[C@@H]2C[C@H](F)CN2C(=O)CNC(=O)[C@H](Cc2ccc(C(=O)O)cc2)NC(=O)[C@H](Cc2ccncc2)NC(=O)[C@H](Cc2ccc(-c3ccc(C(=O)O)cc3)cc2)NC(=O)[C@H]2C[C@@H](Cc3ccc(F)cc3)CN2C(=O)CNC(=O)[C@H](CCCNC(=N)N)NC(=O)[C@H](CCC(N)=O)NC(=O)[C@H](Cc2ccccc2)NC(=O)C(C)(C)NC(=O)[C@H](Cc2c[nH]c3ccccc23)NC(=O)[C@H](CCC(=O)O)NC(=O)C(C)(C)NC1=O` [Example 35] (cyclo([Bip(4'-COOH)][4Pal][Phe(4-COOH)]G[Pro(cis-4-F)][Trp(βS-Me,4-F)][Aib]EW[Aib]FQRG[dPro(4R-Bzl(4-F))])), the half-maximal inhibitory concentration (IC50) came out at 49 pM.
`C[C@@H](c1c[nH]c2cccc(F)c12)[C@@H]1NC(=O)[C@@H]2C[C@H](F)CN2C(=O)CNC(=O)[C@H](Cc2ccc(C(=O)O)cc2)NC(=O)[C@H](Cc2ccncc2)NC(=O)[C@H](Cc2ccc(-c3ccc(C(=O)O)cc3)cc2)NC(=O)[C@H]2C[C@@H](Cc3ccc(F)cc3)CN2C(=O)CNC(=O)[C@H](CO)NC(=O)[C@H](CCC(N)=O)NC(=O)[C@H](Cc2ccccn2)NC(=O)C(C)(C)NC(=O)[C@H](Cc2c[nH]c3ccccc23)NC(=O)[C@H](CCC(=O)O)NC(=O)C(C)(C)NC1=O` [Example 36] (cyclo([Bip(4'-COOH)][4Pal][Phe(4-COOH)]G[Pro(cis-4-F)][Trp(βS-Me,4-F)][Aib]EW[Aib][2Pal]QSG[dPro(4R-Bzl(4-F))])): the 50% inhibitory concentration (IC50) was 54 pM.
On to `CC(=O)N1CCN(c2ccc(C[C@@H]3NC(=O)[C@H]4C[C@@H](Cc5ccc(F)cc5)CN4C(=O)CNC(=O)[C@H](CCN)NC(=O)[C@H](CCC(N)=O)NC(=O)[C@H](Cc4cncnc4)NC(=O)C(C)(C)NC(=O)[C@H](Cc4c[nH]c5ccccc45)NC(=O)[C@H](CCC(=O)O)NC(=O)C(C)(C)NC(=O)[C@H]([C@@H](C)c4c[nH]c5cccc(F)c45)NC(=O)[C@@H]4C[C@H](F)CN4C(=O)CNC(=O)[C@H](Cc4ccc(C(=O)O)cc4)NC(=O)[C@H](Cc4ccncc4)NC3=O)cc2)CC1` [Example 37] (cyclo([Phe(4-(4-Ac-piperazinyl))][4Pal][Phe(4-COOH)]G[Pro(cis-4-F)][Trp(βS-Me,4-F)][Aib]EW[Aib][Ala(pyrimidin-5-yl)]Q[Dab]G[dPro(4R-Bzl(4-F))])), for which the IC50 stood at 33 pM.
The value for `C[C@@H](c1c[nH]c2cccc(F)c12)[C@@H]1NC(=O)[C@@H]2C[C@H](F)CN2C(=O)CNC(=O)[C@H](Cc2ccc(C(=O)O)cc2)NC(=O)[C@H](Cc2ccncc2)NC(=O)[C@H](Cc2ccc(-c3ncc(C(=O)O)cn3)cc2)NC(=O)[C@H]2C[C@@H](Cc3ccc(F)cc3)CN2C(=O)CNC(=O)[C@H](CCN)NC(=O)[C@H](CCC(N)=O)NC(=O)[C@H](Cc2cncnc2)NC(=O)C(C)(C)NC(=O)[C@H](Cc2c[nH]c3ccccc23)NC(=O)[C@H](CCC(=O)O)NC(=O)C(C)(C)NC1=O` [Example 38] (cyclo([Phe(4-(5-CO2H-2-pyrimidyl))][4Pal][Phe(4-COOH)]G[Pro(cis-4-F)][Trp(βS-Me,4-F)][Aib]EW[Aib][Ala(pyrimidin-5-yl)]Q[Dab]G[dPro(4R-Bzl(4-F))])) was 41 pM.
The value for `CC(=O)N1CCN(c2ccc(C[C@@H]3NC(=O)[C@H]4C[C@@H](Cc5ccc(F)cc5)CN4C(=O)CNC(=O)[C@H](CCN)NC(=O)[C@H](CCC(N)=O)NC(=O)[C@H](Cc4cncnc4)NC(=O)C(C)(C)NC(=O)[C@H](Cc4c[nH]c5ccccc45)NC(=O)[C@H](CCC(=O)O)NC(=O)C(C)(C)NC(=O)[C@H]([C@@H](C)c4c[nH]c5cccc(F)c45)NC(=O)[C@@H]4C[C@H](F)CN4C(=O)CNC(=O)[C@H](Cc4ccc(C(=O)O)cc4)NC(=O)[C@H](Cc4ccncc4)NC3=O)cn2)CC1` [Example 39] (cyclo([X37][4Pal][Phe(4-COOH)]G[Pro(cis-4-F)][Trp(βS-Me,4-F)][Aib]EW[Aib][Ala(pyrimidin-5-yl)]Q[Dab]G[dPro(4R-Bzl(4-F))])) was 63 pM.
The value for `CC(=O)N1CCN(c2ncc(C[C@@H]3NC(=O)[C@H]4C[C@@H](Cc5ccc(F)cc5)CN4C(=O)CNC(=O)[C@H](CCN)NC(=O)[C@H](CCC(N)=O)NC(=O)[C@H](Cc4cncnc4)NC(=O)C(C)(C)NC(=O)[C@H](Cc4c[nH]c5ccccc45)NC(=O)[C@H](CCC(=O)O)NC(=O)C(C)(C)NC(=O)[C@H]([C@@H](C)c4c[nH]c5cccc(F)c45)NC(=O)[C@@H]4C[C@H](F)CN4C(=O)CNC(=O)[C@H](Cc4ccc(C(=O)O)cc4)NC(=O)[C@H](Cc4ccncc4)NC3=O)cn2)CC1` [Example 40] (cyclo([X28][4Pal][Phe(4-COOH)]G[Pro(cis-4-F)][Trp(βS-Me,4-F)][Aib]EW[Aib][Ala(pyrimidin-5-yl)]Q[Dab]G[dPro(4R-Bzl(4-F))])) was 48 pM; that for `C[C@@H]1NC(=O)C(C)(C)NC(=O)[C@H]([C@@H](C)c2c[nH]c3cccc(F)c23)NC(=O)[C@@H]2C[C@H](F)CN2C(=O)CNC(=O)[C@H](Cc2ccc(C(=O)O)cc2)NC(=O)[C@H](Cc2ccncc2)NC(=O)[C@H](Cc2ccc(-c3ccc(C(=O)O)cc3)cc2)NC(=O)[C@H]2C[C@@H](Cc3ccncc3)CN2C(=O)CNC(=O)[C@H](CCN)NC(=O)[C@H](CCC(N)=O)NC(=O)[C@H](Cc2cncnc2)NC(=O)C(C)(C)NC(=O)[C@H](Cc2c[nH]c3ccccc23)NC1=O` [Example 41] (cyclo([4Pal][Phe(4-COOH)]G[Pro(cis-4-F)][Trp(βS-Me,4-F)][Aib]AW[Aib][Ala(pyrimidin-5-yl)]Q[Dab]G[dPro(4R-(4-pyridylmethyl))][Bip(4'-COOH)])) was 29 pM; that for `C[C@@H](c1c[nH]c2cccc(F)c12)[C@@H]1NC(=O)[C@@H]2C[C@H](F)CN2C(=O)CNC(=O)[C@H](Cc2ccc(C(=O)O)cc2)NC(=O)[C@H](Cc2ccncc2)NC(=O)[C@H](Cc2ccc(-c3ccc(C(=O)O)cc3)cc2)NC(=O)[C@H]2C[C@@H](Cc3ccncc3)CN2C(=O)CNC(=O)[C@H](CCN)NC(=O)[C@H](CCC(N)=O)NC(=O)[C@H](Cc2cncnc2)NC(=O)C(C)(C)NC(=O)[C@H](Cc2c[nH]c3ccccc23)NC(=O)[C@H](CO)NC(=O)C(C)(C)NC1=O` [Example 42] (cyclo([4Pal][Phe(4-COOH)]G[Pro(cis-4-F)][Trp(βS-Me,4-F)][Aib]SW[Aib][Ala(pyrimidin-5-yl)]Q[Dab]G[dPro(4R-(4-pyridylmethyl))][Bip(4'-COOH)])) was 21 pM.
As to `C[C@@H](c1c[nH]c2cccc(F)c12)[C@@H]1NC(=O)[C@@H]2C[C@H](F)CN2C(=O)CNC(=O)[C@H](Cc2ccc(C(=O)O)cc2)NC(=O)[C@H](CC23CC(C2)C3)NC(=O)[C@H](Cc2ccc(-c3ccc(C(=O)O)cc3)cc2)NC(=O)[C@H]2C[C@@H](Cc3ccncc3)CN2C(=O)CNC(=O)[C@H](CCN)NC(=O)[C@H](CCC(N)=O)NC(=O)[C@H](Cc2cncnc2)NC(=O)C(C)(C)NC(=O)[C@H](Cc2c[nH]c3ccccc23)NC(=O)[C@H](CCC(=O)O)NC(=O)C(C)(C)NC1=O` [Example 43] (cyclo([Bip(4'-COOH)][Ala(1-bicyclo(1.1.1)pentyl)][Phe(4-COOH)]G[Pro(cis-4-F)][Trp(βS-Me,4-F)][Aib]EW[Aib][Ala(pyrimidin-5-yl)]Q[Dab]G[dPro(4R-(4-pyridylmethyl))])), the half-maximal inhibitory concentration (IC50) was determined as 26 pM.
The value for `C[C@@H](c1c[nH]c2cccc(F)c12)[C@@H]1NC(=O)[C@@H]2C[C@H](F)CN2C(=O)CNC(=O)[C@H](Cc2ccc(C(=O)O)cc2)NC(=O)[C@H](CC23CC(C2)C3)NC(=O)[C@H](Cc2ccc(-c3ccc(C(=O)O)cc3)cc2)NC(=O)[C@H]2C[C@@H](Cc3ccncc3)CN2C(=O)CNC(=O)[C@H](CCN)NC(=O)[C@H](CCC(N)=O)NC(=O)[C@H](Cc2cncnc2)NC(=O)C(C)(C)NC(=O)[C@H](Cc2c[nH]c3ccccc23)NC(=O)[C@H](CO)NC(=O)C(C)(C)NC1=O` [Example 44] (cyclo([Aib]SW[Aib][Ala(pyrimidin-5-yl)]Q[Dab]G[dPro(4R-(4-pyridylmethyl))][Bip(4'-COOH)][Ala(1-bicyclo(1.1.1)pentyl)][Phe(4-COOH)]G[Pro(cis-4-F)][Trp(βS-Me,4-F)])) was 21 pM; that for `C[C@@H](c1c[nH]c2cccc(F)c12)[C@@H]1NC(=O)[C@@H]2C[C@H](F)CN2C(=O)CNC(=O)[C@H](Cc2ccc(C(=O)O)cc2)NC(=O)[C@H](CC23CC(C2)C3)NC(=O)[C@H](Cc2ccc(-c3ccc(C(=O)O)cc3)cc2)NC(=O)[C@H]2C[C@@H](Cc3ccncc3)CN2C(=O)CNC(=O)[C@H](CCN)NC(=O)[C@H](CCC(N)=O)NC(=O)[C@H](Cc2ccncc2)NC(=O)C(C)(C)NC(=O)[C@H](Cc2c[nH]c3ccccc23)NC(=O)[C@H](CCC(=O)O)NC(=O)C(C)(C)NC1=O` [Example 45] (cyclo([Bip(4'-COOH)][Ala(1-bicyclo(1.1.1)pentyl)][Phe(4-COOH)]G[Pro(cis-4-F)][Trp(βS-Me,4-F)][Aib]EW[Aib][4Pal]Q[Dab]G[dPro(4R-(4-pyridylmethyl))])) was 27 pM.

Broadly, the IC50 is the concentration that gives 50% inhibition.

(Values after patent publication US20260242419A1, “A CYCLIC PEPTIDE FOR TRAPPING INTERLEUKIN-1 BETA” (Merck Sharp & Dohme LLC, priority 2023, published 2026).)
